The structures appear in SMILES notation. Where two headings read alike, the source gives them in different places.

Here are results for three compounds from publication PMC1892040 (PLoS Medicine, 2007).

Data set [1] deals with T1, S. mansoni TGR (Schistosoma mansoni, UniProt Q962Y6).
T1 sequence (Q962Y6 1-598): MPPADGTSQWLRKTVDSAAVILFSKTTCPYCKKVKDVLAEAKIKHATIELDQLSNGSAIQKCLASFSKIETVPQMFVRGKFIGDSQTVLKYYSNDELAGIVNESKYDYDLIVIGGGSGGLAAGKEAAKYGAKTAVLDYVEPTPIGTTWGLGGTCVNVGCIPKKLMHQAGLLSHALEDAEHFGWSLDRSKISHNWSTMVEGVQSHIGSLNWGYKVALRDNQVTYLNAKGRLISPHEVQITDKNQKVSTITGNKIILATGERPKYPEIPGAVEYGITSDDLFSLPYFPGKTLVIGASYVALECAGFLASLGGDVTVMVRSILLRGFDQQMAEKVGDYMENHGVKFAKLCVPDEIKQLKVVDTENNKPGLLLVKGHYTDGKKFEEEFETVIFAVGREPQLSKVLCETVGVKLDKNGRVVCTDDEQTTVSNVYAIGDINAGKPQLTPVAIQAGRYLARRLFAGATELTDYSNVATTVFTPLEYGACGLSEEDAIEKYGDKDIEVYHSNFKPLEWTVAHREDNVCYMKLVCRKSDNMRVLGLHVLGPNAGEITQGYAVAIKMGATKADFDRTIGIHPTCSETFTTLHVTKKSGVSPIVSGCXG
As to the kind of experiment: Kinetic analysis of recombinant S. mansoni TGR with substrates. On the procedure:
Kinetic parameters were determined using Lineweaver–Burk plots using KaleidaGraph 4 (Synergy Software, http://www.synergy.com) least squares best fit of data and varying concentrations of one substrate while maintaining the concentration of other substrates. […] All assays were done in triplicate.

The subject of another data set is Human TrxR1. As to conditions: read-out: Apparent Km, Human TrxR1; cited from earlier work.
The subject of a further data set is Human TGR. To be noted: read-out: Apparent Km, Human TGR; cited from earlier work.
Data set [2] has as its target T2, Human GR (Homo sapiens, UniProt P00390).
T2 sequence (P00390 44-522): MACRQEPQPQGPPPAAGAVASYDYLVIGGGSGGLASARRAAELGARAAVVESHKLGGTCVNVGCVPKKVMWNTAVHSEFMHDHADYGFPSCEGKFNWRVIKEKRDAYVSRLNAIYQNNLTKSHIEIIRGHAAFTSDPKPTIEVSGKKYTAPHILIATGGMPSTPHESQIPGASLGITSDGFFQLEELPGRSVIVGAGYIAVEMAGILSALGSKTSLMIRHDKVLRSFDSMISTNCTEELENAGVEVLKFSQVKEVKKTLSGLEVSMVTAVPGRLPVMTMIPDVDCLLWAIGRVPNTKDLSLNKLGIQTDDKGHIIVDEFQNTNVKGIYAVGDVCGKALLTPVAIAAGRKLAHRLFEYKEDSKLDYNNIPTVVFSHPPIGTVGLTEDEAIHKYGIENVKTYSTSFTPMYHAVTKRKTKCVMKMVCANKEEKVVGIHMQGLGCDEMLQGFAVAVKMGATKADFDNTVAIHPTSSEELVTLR
As to conditions: read-out: Apparent Km, Human GR; cited from earlier work.

In data set [3] the target is T2, Human GR. As to the kind of experiment: Inhibition of human GR (GSSG). As to conditions: 12.5 μM compound, 200 μM disulfide substrate, preincubation 60 min at 37 °C; read-out: Percent inhibition of Human GR. It is filed as biochemical.
Excerpt: In order to assess the potential for inhibition of TGR we screened several structurally diverse series of compounds (Figure S1) known to act as inhibitors of disulfide reductases from various organisms.
A further data set addresses T3, Human TrxR (Homo sapiens, UniProt Q16881).
T3 sequence (Q16881 1-499 isoform Q16881-5): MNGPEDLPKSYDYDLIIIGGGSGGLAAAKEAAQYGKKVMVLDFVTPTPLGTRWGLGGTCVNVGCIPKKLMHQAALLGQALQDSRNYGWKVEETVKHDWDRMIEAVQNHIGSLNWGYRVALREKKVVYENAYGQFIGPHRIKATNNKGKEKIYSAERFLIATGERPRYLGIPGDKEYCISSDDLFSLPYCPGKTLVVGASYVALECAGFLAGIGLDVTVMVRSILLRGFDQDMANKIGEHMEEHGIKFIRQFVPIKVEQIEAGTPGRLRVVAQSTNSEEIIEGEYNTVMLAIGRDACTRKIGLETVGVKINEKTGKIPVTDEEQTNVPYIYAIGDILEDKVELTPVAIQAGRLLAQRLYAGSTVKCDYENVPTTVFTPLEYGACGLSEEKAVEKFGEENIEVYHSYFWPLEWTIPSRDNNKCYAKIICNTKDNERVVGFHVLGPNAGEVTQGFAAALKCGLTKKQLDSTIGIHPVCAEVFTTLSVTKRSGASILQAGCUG
The experiment in a line: Inhibition of human TrxR (DTNB/Trx). It is filed as biochemical. As to conditions: 12.5 μM compound, 200 μM disulfide substrate, preincubation 60 min at 37 °C; read-out: Percent inhibition of Human TrxR.

Data set [4] deals with T1, S. mansoni TGR. As to conditions: rough estimation at low OPZ concentrations. On the procedure:
OPZ concentrations were 0 (•), 25 (□), 50 (♦), 75 (Δ), and 100 (▴) μM. All incubation mixtures included 2% final DMSO. […] The error bars in (B) and (D) represent ± the standard errors of the k obs values estimated separately at each inhibitor concentration, as obtained from nonlinear regression analysis.

Data set [5] concerns the target T1, S. mansoni TGR.
Description: (§1) Assays were performed at 25 °C in 0.1 M potassium phosphate (pH 7.4), 10 mM EDTA using 100 μM NADPH unless otherwise stated.
(§2) Initial inhibitor screens were conducted in 200 μl volumes in 96 well plates with 50 μM inhibitor, 100 μM NADPH, and 5 nM TGR in 0.1 M potassium phosphate (pH 7.4), 10 mM EDTA with a preincubation step of 15 min. […] All assays were done in triplicate.
Data set [6] addresses T1, S. mansoni TGR. As to the kind of experiment: biochemical. It is filed as biochemical. To be noted: for Type of inhibition of TGR: reciprocal plots, TrxR and GR activities. More on the design: The entire TGR ORF plus the SECIS element was subcloned into pET-24a; made in house; host or cells: Escherichia coli BL21(DE3) with pSUABC. The method, then: The inhibitory constants (K i) were determined using Equation 1 [21]: [drawing 1] where v maxapp is the apparent v max at different inhibitor concentrations and corresponds to the value of the 1/v intercept on the reciprocal plot.
The apparent Vmax for various concentrations of inhibitors were used to calculate K i values. Concentrations of PAT are no drug (♦), 10 nM, 30 nM (▴), and 75 nM (×); and of OPZ are no drug (♦), 50 μM, 75 μM (▴), and 100 μM (×).

The subject of another data set is myeloma cell line SP2/0. The experiment in a line: Cytotoxicity assay (sulforhodamine B). The class given is cell-based. As to conditions: adult worms 24 h; myeloma cells 24 h and 5 d. On the procedure:
Cytotoxicity assays were performed using sulforhodamine B to determine cellular protein content as described. Briefly, myeloma cell line SP2/0 was cultured in 96-well microtiter plates containing 0.2 ml of RPMI-1640 per well at a cell density of 1,000 per well at 37 °C in 5% CO2. Cells were treated with drug concentrations (or drug carrier alone) and exposure times as indicated. After treatment, cells were fixed with 10% TCA at 4 °C for 1 h. Fixed cells were rinsed to remove fixative and then stained in 0.4% (w/v) sulforhodamine B (Sigma) in 1% acetic acid for 30 min. After washing with 1% acetic acid and dye extraction in 10 mM Tris (pH 10.5), plates were read at A564nm. The A564nm of drug-treated cells was compared to carrier-only-treated cells. The treatments were done in triplicate and the experiments repeated three times.

In data set [7] the target is phosphofructokinase (PFK). More on the design: method as in PMID 8898332. As to conditions: cited from earlier work.
Data set [8] deals with T1, S. mansoni TGR. The class given is biochemical. As to conditions: read-out: IC50 S. mansoni TGR, DTNB (TrxR activity). More on the design: The entire TGR ORF plus the SECIS element was subcloned into pET-24a; made in house; host or cells: Escherichia coli BL21(DE3) with pSUABC.
Description: as §1, §2
Data set [9] has as its target T1, S. mansoni TGR. It is filed as biochemical. More on the design: The entire TGR ORF plus the SECIS element was subcloned into pET-24a; made in house; host or cells: Escherichia coli BL21(DE3) with pSUABC. To be noted: read-out: IC50 S. mansoni TGR, GSSG (GR activity).
Description: as §1, §2
[10] abbreviates: substrate of TGR (20 nM), 25 °C, pH 7.4, 100 μM NADPH, ± SD.

Consider `NC(=O)C1=CN([C@@H]2O[C@H](COP(=O)(O)OP(=O)(O)OC[C@H]3O[C@@H](n4cnc5c(N)ncnc54)[C@H](OP(=O)(O)O)[C@@H]3O)[C@@H](O)[C@H]2O)C=CC1` [NADPH], for which the Km (usually the concentration of substrate that gives half-maximal velocity) is 13.7 µM at S. mansoni TGR [1] (read-out: Apparent Km, S. mansoni TGR); 13.7 ± 2.4 µM at S. mansoni TGR [1] (setting [10]); 19.6 µM in the data set on Human TrxR1; 10.7 µM in the data set on Human TGR; 8.5 µM at Human GR [2]. In addition, the kcat (in general, the maximal rate divided by the concentration of active sites) on S. mansoni TGR [1] (substrate of TGR (20 nM), 25 °C, pH 7.4, 100 μM NADPH) was 20.1 s⁻¹. Further, at S. mansoni TGR [1] (setting [10]), the maximum rate (Vmax) (commonly the rate approached at saturating substrate) amounted to 25.1 ± 1.8 µM/min.

As to `Cc1c(-c2cnccn2)ssc1=S` [OPZ, oltipraz], the inhibition (usually the relative decrease from the control value, in per cent) at 12.5 µM was 0% at Human GR [3] and 37% on Human TrxR. In addition, at S. mansoni TGR [4], the “k i, first-order rate constant for irreversible inactivation, GR assay” value was approximately 0.04 min⁻¹. For the same compound, at S. mansoni TGR [4], the “k i, first-order rate constant for irreversible inactivation, TrxR assay” value was approximately 0.06 min⁻¹. At S. mansoni TGR [5], the activity stood at 13%. Further, the Ki – broadly, a dissociation constant, usually derived from enzyme kinetics or from competition with a known ligand – worked out at 33800 ± 6000 nM at S. mansoni TGR [6] (Ki (± standard deviation), GR activity of TGR, GSSG as substrate) and 18100 ± 1100 nM on S. mansoni TGR [6] (Ki (± standard deviation), TrxR activity of TGR, DTNB as substrate). Further, on S. mansoni TGR [6], the “Type of inhibition of TGR” value is given as “noncompetitive”.

In the case of `O.O.O.O=C([O-])[C@H]([O-])[C@@H]([O-])C(=O)[O-].O=C([O-])[C@H]([O-])[C@@H]([O-])C(=O)[O-].[K+].[K+].[Sb+3].[Sb+3]` [PAT, potassium antimonyl tartrate], the “Differential in toxicity between adult worms and mammalian cells” value in the data set with myeloma cell line SP2/0 is “similarly large differential in toxicity”. Also, at S. mansoni TGR [5], the “Activity of Enzyme (% of Uninhibited Enzyme)” value came out at 0%. Besides, the figures for the IC50 (in [7]; on S. mansoni TGR [8]; at S. mansoni TGR [9]) were 16000 nM, 51 nM and 37 nM, respectively. Moreover, the Ki was determined as 4.86 ± 0.46 nM at S. mansoni TGR [6] (DTNB as substrate, read-out: Ki (± standard deviation), TrxR activity of TGR) and 7.22 ± 4.96 nM at S. mansoni TGR [6] (GSSG as substrate, read-out: Ki (± standard deviation), GR activity of TGR). Besides, the “Type of inhibition of TGR” value at S. mansoni TGR [6] was “noncompetitive”.
